Reference: ChEMBL document CHEMBL1201862, “PubChem BioAssay data set” (2004)
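Briefly, cells in 96-well plates were exposed to five compound concentrations for 48 h, and endpoints were estimated by linear interpolation. GI50 is the concentration that inhibits growth by half.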 Activity calls are given as the source filed them. Cut-off read from the data, not from the text of the source: active = GI50 up to about 1.1 µM and inactive = higher.

Legend:
Assay in all cases: inhibition of tumour cell growth, NCI panel, 48 h
HOP-62 = system: HOP-62
HCT-116 = system: HCT-116
MCF7 = system: MCF7
IGROV-1 = system: IGROV-1
786-0 = system: 786-0
SF-268 = system: SF-268
UACC-257 = system: UACC-257
OVCAR-4 = system: OVCAR-4
NCI-H460 = system: NCI-H460
MOLT-4 = system: MOLT-4
SW-620 = system: SW-620
SNB-19 = system: SNB-19
NCI/ADR-RES = system: NCI/ADR-RES
CAKI-1 = system: CAKI-1
OVCAR-8 = system: OVCAR-8
U-251 = system: U-251
BT-549 = system: BT-549
COLO 205 = system: COLO 205
NCI-H226 = system: NCI-H226
SR = system: SR

SMILES	GI50 (HOP-62)	GI50 (HCT-116)	GI50 (MCF7)	GI50 (IGROV-1)	GI50 (786-0)	GI50 (SF-268)	GI50 (UACC-257)	GI50 (OVCAR-4)	GI50 (NCI-H460)	GI50 (MOLT-4)	GI50 (SW-620)	GI50 (SNB-19)	GI50 (NCI/ADR-RES)	GI50 (CAKI-1)	GI50 (OVCAR-8)	GI50 (U-251)	GI50 (BT-549)	GI50 (COLO 205)	GI50 (NCI-H226)	GI50 (SR)
CCN(c1cccc(NC(=S)Nc2ccccc2N(CC)c2cc(-c3ccccc3)no2)c1)c1cc(-c2ccccc2)no1	> 100 µM (inactive)	> 100 µM (inactive)	> 100 µM (inactive)	> 100 µM (inactive)	> 100 µM (inactive)	> 100 µM (inactive)	> 100 µM (inactive)	> 100 µM (inactive)	> 100 µM (inactive)	> 100 µM (inactive)	> 100 µM (inactive)	> 100 µM (inactive)	> 100 µM (inactive)	> 100 µM (inactive)	> 100 µM (inactive)	> 100 µM (inactive)	> 100 µM (inactive)	> 100 µM (inactive)	> 100 µM (inactive)	> 100 µM (inactive)
Oc1nncc2[nH]c(-c3ccccc3)cc12	61.5 µM (inactive)	57.7 µM (inactive)	24.4 µM (inactive)	> 100 µM (inactive)	75 µM (inactive)	39.4 µM (inactive)	30.5 µM (inactive)	55.1 µM (inactive)	45.5 µM (inactive)	17 µM (inactive)	64.4 µM (inactive)	> 100 µM (inactive)	25.2 µM (inactive)	45.8 µM (inactive)	78.7 µM (inactive)	52 µM (inactive)	37.8 µM (inactive)	43.1 µM (inactive)	86.1 µM (inactive)	46.5 µM (inactive)
O=C1C(NS(=O)(=O)c2ccccc2)=C(n2ccnc2)C(=O)c2ccccc21	> 100 µM (inactive)	> 100 µM (inactive)	> 100 µM (inactive)	> 100 µM (inactive)	> 100 µM (inactive)	> 100 µM (inactive)	> 100 µM (inactive)	> 100 µM (inactive)	> 100 µM (inactive)	> 100 µM (inactive)	> 100 µM (inactive)	> 100 µM (inactive)	> 100 µM (inactive)	> 100 µM (inactive)	> 100 µM (inactive)	> 100 µM (inactive)	> 100 µM (inactive)	> 100 µM (inactive)	> 100 µM (inactive)	> 100 µM (inactive)
FC(F)(F)C1(C(F)(F)F)O[Si]2(OC(C(F)(F)F)(C(F)(F)F)c3ccccc32)c2ccccc21	8.67 µM (inactive)	5.45 µM (inactive)	14.4 µM (inactive)	16.3 µM (inactive)	12.7 µM (inactive)	15.6 µM (inactive)	18 µM (inactive)	11.4 µM (inactive)	5.98 µM (inactive)	14.4 µM (inactive)	17.1 µM (inactive)	9.57 µM (inactive)	6.58 µM (inactive)	19.1 µM (inactive)	8.75 µM (inactive)	3.95 µM (inactive)	14.5 µM (inactive)	14.8 µM (inactive)	4.53 µM (inactive)	9.95 µM (inactive)
CC(=O)NC1=C(C)C(=O)c2c(nc3n2CCC3OC(=O)c2ccccc2)C1=N (stereo not given)	3.09 µM (inactive)	3.15 µM (inactive)	0.755 µM (active)	1.74 µM (inactive)	1.93 µM (inactive)	2.18 µM (inactive)	1.24 µM (inactive)	0.518 µM (active)	1.99 µM (inactive)	1.84 µM (inactive)	1.63 µM (inactive)	3.48 µM (inactive)	2.93 µM (inactive)	1.84 µM (inactive)	1.04 µM (active)	3.22 µM (inactive)	0.689 µM (active)	1.38 µM (inactive)	4.24 µM (inactive)	2.29 µM (inactive)
